Reference: patent publication US7842710B2, “Carboxamides” (Bayer Cropscience AG, priority 2004, dated 2010)

Experiment: logP determination by HPLC on a reverse phase column (C18), EEC Directive 79/831 Annex V.A8
Format: physicochemical
Conditions: HPLC C18, 43° C.; for logP (pH 2.3): Table 1; for chromatographic logP: reverse phase HPLC column (C18), pH 2.3
Protocol: The specified logP values are determined by HPLC on a reverse phase column (C18) in accordance with EEC Directive 79/831 Annex V.A8. Temperature: 43° C. Eluents for the measurement in the acid range (pH 2.3): 0.1% aqueous phosphoric acid, acetonitrile; linearer gradient of 10% acetonitrile to 90% acetonitrile. Calibration is performed with unbranched alkyl-2-ones (with 3 to 16 carbon atoms) with known logP values (determination of the logP values based on retention times by linear interpolation between two sequential alkyl ketones).

SMILES | logP (pH 2.3) | chromatographic logP
CCCC(C)SC(C)c1ccccc1NC(=O)c1cn(C)nc1C(F)(F)F (mixture of isomers) [compound 42] | 4.02 | 
CCCC(C)SC(C)c1ccccc1NC(=O)c1c(C)nn(C)c1F (mixture of isomers) [compound 43] | 3.82 | 
CCCC(C)SC(C)c1ccccc1NC(=O)c1sc(C)nc1C(F)(F)F (mixture of isomers) [compound 44] | 4.52 | 
CCC(C)SC(C)c1ccccc1NC(=O)c1cn(C)nc1C(F)(F)F (mixture of isomers) [compound 45] | 4.14 | 
CCC(C)SC(C)c1ccccc1NC(=O)c1c(C)nn(C)c1F (mixture of isomers) [compound 46] | 3.38 | 
CCCC(C)SC(C)c1ccccc1NC(=O)c1ccccc1I (mixture of isomers) [compound 47] | 4.75 | 
CCC(C)SC(C)c1ccccc1NC(=O)c1sc(C)nc1C(F)(F)F (mixture of isomers) [compound 48] | 4.12 | 
CCC(C)SC(C)c1ccccc1NC(=O)c1ccccc1I (mixture of isomers) [compound 49] | 4.33 | 
CC(C)SC(C)c1ccccc1NC(=O)c1ccccc1Br (racemic) [compound 26] | 3.79 | 
CC(C)SC(C)c1ccccc1NC(=O)c1ccccc1I (racemic) [compound 27] | 3.91 | 
CC(C)SC(C)c1ccccc1NC(=O)c1cn(C)nc1C(F)F (racemic) [compound 28] | 3.01 | 
Cc1nc(C(F)F)c(C(=O)Nc2ccccc2C(C)SC(C)C)s1 (racemic) [compound 29] | 3.55 | 
CC(C)SC(C)c1ccccc1NC(=O)C1=C(C(F)(F)F)OCCS1 (racemic) [compound 30] | 3.76 | 
COC(C)c1ccccc1NC(=O)c1c(C)nn(C)c1F (racemic) [compound 31] | 2.17 | 
COC(C)c1ccccc1NC(=O)c1cn(C)nc1C(F)(F)F (racemic) [compound 32] | 2.46 | 
COC(C)c1cc(Cl)ccc1NC(=O)c1ccccc1C(F)(F)F (racemic) [compound 33] | 3.56 | 
COC(C)c1ccccc1NC(=O)c1ccccc1C(F)(F)F (racemic) [compound 34] | 2.99 | 
CC(C)NC(C)c1ccccc1NC(=O)c1cn(C)nc1C(F)(F)F (racemic) [compound 41] | 1.06 | 
CCCC(C)SC(C)c1ccccc1NC(=O)c1cn(C)cc1C(F)(F)F (racemic) [compound 109] | 4.29 | 
CCCC(C)SC(C)c1ccccc1NC(=O)C1=C(C(F)(F)F)OCCS1 (racemic) [compound 110] | 4.49 | 
CCCC(C)SC(C)c1ccccc1NC(=O)c1c(C(F)(F)F)nn(C)c1F (racemic) [compound 111] | 4.38 | 
CCCC(C)SC(C)c1ccccc1NC(=O)c1ccccc1C (racemic) [compound 112] | 4.76 | 
CCCC(C)SC(C)c1ccccc1NC(=O)c1c(C)nn(C)c1Cl (racemic) [compound 113] | 4.07 | 
CCC(C)SC(C)c1ccccc1NC(=O)c1c(C(F)(F)F)nn(C)c1F (racemic) [compound 121] | 3.99 | 
Cc1sccc1C(=O)Nc1ccccc1C(C)S(=O)(=O)C(C)C (centres unmarked) [Compound No. 4] | 2.38 | 
CC(C)S(=O)(=O)C(C)c1ccccc1NC(=O)c1ccccc1C(F)(F)F (centres unmarked) [Compound No. 6] | 2.53 | 

SMILES | logP (pH 2.3) | chromatographic logP
Cc1nn(C)c(F)c1C(=O)Nc1ccccc1C(C)NC(C)C (centres unmarked) [Compound No. 40, 5-fluoro-N-{2-[1-(isopropylamino)ethyl]phenyl}-1,3-dimethyl-1H-pyrazole-4-carboxamide] |  | 0.58
CC(C)OCc1ccccc1NC(=O)c1cn(C)nc1C(F)(F)F [Compound No. 60, N-[2-(isopropoxymethyl)phenyl]-1-methyl-3-(trifluoromethyl)-1H-pyrazol-4-carboxamide] |  | 2.85
CC(C)SC(C)c1ccccc1N (centres unmarked) [III-1, 2-[1-(isopropylthio)ethyl]aniline] |  | 2.45
CC(C)S(=O)(=O)C(C)c1ccccc1N (centres unmarked) [III-2, 2-[1-(isopropylsulfonyl)ethyl]aniline] |  | 1.28
CC(C)SCc1ccccc1N [III-3, 2-[1-(isopropylthio)methyl]aniline] |  | 1.94
CC(C)NC(C)c1ccccc1N (centres unmarked) [III-4, 2-[1-(isopropylamino)ethyl]aniline] |  | 0.05
Cn1cc(C(=O)Nc2ccccc2CO)c(C(F)(F)F)n1 [IV-1, N-[2-(hydroxymethyl)phenyl]-1-methyl-3-(trifluoromethyl)-1H-pyrazole-4-carboxamide] |  | 1.55
CC(C)S(=O)(=O)Cc1ccccc1[N+](=O)[O-] [VI-3, 1-[(isopropylsulfonyl)methyl]-2-nitrobenzene] |  | 1.63
CC(C)SC(C)c1ccccc1[N+](=O)[O-] (centres unmarked) [VII-1, 1-[1-(isopropylthio)ethyl]-2-nitrobenzene] |  | 3.89
CC(C)SCc1ccccc1[N+](=O)[O-] [VII-2, 1-[1-(isopropylthio)methyl]-2-nitrobenzene] |  | 3.28
CC(C)NC(C)c1ccccc1[N+](=O)[O-] (centres unmarked) [VII-5, N-[1-(2-nitrophenyl)ethyl]propane-2-amine] |  | 0.55
CC(Cl)c1ccccc1[N+](=O)[O-] (centres unmarked) [VIII-1, 1-(1-chloroethyl)-2-nitrobenzene] |  | 2.87
CC(O)c1ccccc1[N+](=O)[O-] (centres unmarked) [XI-1, 1-(2-nitrophenyl)ethanol] |  | 1.49
COCc1ccccc1NC(=O)C1=C(C)OCC1 [compound 1] | 2.18 | 
CC1=C(C(=O)Nc2ccccc2C(C)S(=O)(=O)C(C)C)SCCO1 (centres unmarked) [compound 2] | 2.07 | 
CC(C)S(=O)(=O)C(C)c1ccccc1NC(=O)c1ccccc1Br (centres unmarked) [compound 3] | 2.30 | 
CC(C)S(=O)(=O)C(C)c1ccccc1NC(=O)c1cccnc1Cl (centres unmarked) [compound 5] | 1.68 | 
CC(C)S(=O)(=O)C(C)c1ccccc1NC(=O)c1ccccc1I (centres unmarked) [compound 7] | 2.43 | 
Cc1occc1C(=O)Nc1ccccc1C(C)S(=O)(=O)C(C)C (centres unmarked) [compound 8] | 2.21 | 
Cc1nc(C(F)(F)F)c(C(=O)Nc2ccccc2C(C)S(=O)(=O)C(C)C)s1 (centres unmarked) [compound 9] | 2.35 | 
CC(C)S(=O)(=O)C(C)c1ccccc1NC(=O)C1=C(C(F)(F)F)OCCS1 (centres unmarked) [compound 10] | 2.39 | 
Cc1nn(C)c(F)c1C(=O)Nc1ccccc1C(C)S(=O)(=O)C(C)C (centres unmarked) [compound 11] | 1.66 | 
CC(C)S(=O)(=O)C(C)c1ccccc1NC(=O)c1ccccc1Cl (centres unmarked) [compound 12] | 2.23 | 
Cc1nc(C(F)F)c(C(=O)Nc2ccccc2C(C)S(=O)(=O)C(C)C)s1 (centres unmarked) [compound 13] | 2.16 | 
Cc1nn(C)cc1C(=O)Nc1ccccc1C(C)S(=O)(=O)C(C)C (centres unmarked) [compound 14] | 1.46 | 
CC(C)S(=O)(=O)C(C)c1ccccc1NC(=O)c1cn(C)nc1C(F)(F)F (centres unmarked) [compound 15] | 2.09 | 

SMILES | logP (pH 2.3) | chromatographic logP
CC(C)S(=O)(=O)C(C)c1ccccc1NC(=O)c1cn(C)nc1C(F)F (centres unmarked) [compound 16] | 1.86 | 
Cc1nn(C)cc1C(=O)Nc1ccccc1C(C)SC(C)C (centres unmarked) [compound 17] | 2.53 | 
CC(C)SC(C)c1ccccc1NC(=O)c1cn(C)nc1C(F)(F)F (centres unmarked) [compound 18] | 3.27 | 
Cc1nn(C)c(F)c1C(=O)Nc1ccccc1C(C)SC(C)C (centres unmarked) [compound 19] | 2.98 | 
Cc1sccc1C(=O)Nc1ccccc1C(C)SC(C)C (centres unmarked) [compound 20] | 4.03 | 
CC(C)SC(C)c1ccccc1NC(=O)c1ccccc1Cl (centres unmarked) [compound 21] | 3.74 | 
CC(C)SC(C)c1ccccc1NC(=O)c1cccnc1Cl (centres unmarked) [compound 22] | 2.95 | 
CC(C)SC(C)c1ccccc1NC(=O)c1ccccc1C(F)(F)F (centres unmarked) [compound 23] | 3.90 | 
Cc1occc1C(=O)Nc1ccccc1C(C)SC(C)C (centres unmarked) [compound 24] | 3.71 | 
Cc1nc(C(F)(F)F)c(C(=O)Nc2ccccc2C(C)SC(C)C)s1 (centres unmarked) [compound 25] | 3.73 | 
Cc1nc(C(F)F)c(C(=O)Nc2ccccc2CSC(C)C)s1 [compound 35] | 3.27 | 
CC(C)SCc1ccccc1NC(=O)c1cn(C)nc1C(F)(F)F [compound 36] | 3.05 | 
CC(C)SCc1ccccc1NC(=O)C1=C(C(F)(F)F)OCCS1 [compound 37] | 3.48 | 
CC(C)SCc1ccccc1NC(=O)c1cn(C)nc1C(F)F [compound 38] | 2.76 | 
CC(C)SCc1ccccc1NC(=O)c1ccccc1I [compound 39] | 3.68 | 
O=C(Nc1ccccc1COC(=O)C(Cl)Cl)c1ccccc1C(F)(F)F [compound 50] | 3.15 | 
Cc1nn(C)c(F)c1C(=O)Nc1ccccc1COC(=O)C(C)C [compound 51] | 2.39 | 
Cc1nn(C)c(F)c1C(=O)Nc1ccccc1COC(=O)C(Cl)Cl [compound 52] | 2.36 | 
CC(C)C(=O)OCc1ccccc1NC(=O)c1ccccc1C(F)(F)F [compound 53] | 3.24 | 
CC(C)OCc1ccccc1NC(=O)c1ccccc1C(F)(F)F [compound 54] | 2.51 | 
CC(C)C(=O)OCc1ccccc1NC(=O)c1cn(C)nc1C(F)(F)F [compound 55] | 2.74 | 
Cn1cc(C(=O)Nc2ccccc2COC(=O)C(Cl)Cl)c(C(F)(F)F)n1 [compound 56] | 2.69 | 
CC(C)C(=O)OCc1ccccc1NC(=O)c1cccnc1Cl [compound 57] | 2.38 | 
O=C(Nc1ccccc1COC(=O)C(Cl)Cl)c1cccnc1Cl [compound 58] | 2.38 | 
CC(C)C(=O)OCc1ccccc1N(C(=O)c1cccnc1Cl)C(=O)C(C)C [compound 59] | 3.49 | 
